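Tested at 5 concentrations; 48 h exposure; 96-well plates; endpoints linearly interpolated, else capped at highest concentration. TGI marks complete inhibition of growth.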
Experiments:
Assay in all cases: DTP human tumour cell line panel, 48 h
A498 renal = test system: A498 renal
A549 NSCLC = test system: A549 NSCLC
ACHN renal = test system: ACHN renal
CAKI-1 renal = test system: CAKI-1 renal
CCRF-CEM leukemia = test system: CCRF-CEM leukemia
COLO 205 colon = test system: COLO 205 colon
DU-145 prostate = test system: DU-145 prostate
EKVX NSCLC = test system: EKVX NSCLC
HCT-15 colon = test system: HCT-15 colon
HL-60(TB) leukemia = test system: HL-60(TB) leukemia
HOP-62 NSCLC = test system: HOP-62 NSCLC
HOP-92 NSCLC = test system: HOP-92 NSCLC
HS 578T breast = test system: HS 578T breast
HT29 colon = test system: HT29 colon
IGROV1 ovarian = test system: IGROV1 ovarian
K-562 leukemia = test system: K-562 leukemia
KM12 colon = test system: KM12 colon
M14 melanoma = test system: M14 melanoma
MCF7 breast = test system: MCF7 breast
MDA-MB-231 breast = test system: MDA-MB-231 breast
MDA-MB-435 = test system: MDA-MB-435
MDA-N = test system: MDA-N
MOLT-4 leukemia = test system: MOLT-4 leukemia
NCI-H226 lung = test system: NCI-H226 lung
NCI-H23 lung = test system: NCI-H23 lung
NCI-H460 lung = test system: NCI-H460 lung
NCI/ADR-RES ovarian = test system: NCI/ADR-RES ovarian
OVCAR-3 ovarian = test system: OVCAR-3 ovarian
OVCAR-4 ovarian = test system: OVCAR-4 ovarian
OVCAR-5 ovarian = test system: OVCAR-5 ovarian
OVCAR-8 ovarian = test system: OVCAR-8 ovarian
PC-3 prostate = test system: PC-3 prostate
RPMI-8226 leukemia = test system: RPMI-8226 leukemia
SF-268 CNS = test system: SF-268 CNS
SF-295 CNS = test system: SF-295 CNS
SF-539 CNS = test system: SF-539 CNS
SK-MEL-2 melanoma = test system: SK-MEL-2 melanoma
SK-MEL-28 melanoma = test system: SK-MEL-28 melanoma
SK-MEL-5 melanoma = test system: SK-MEL-5 melanoma
SK-OV-3 ovarian = test system: SK-OV-3 ovarian
SN12C renal = test system: SN12C renal
SNB-19 CNS = test system: SNB-19 CNS
SNB-75 CNS = test system: SNB-75 CNS
SR leukemia = test system: SR leukemia
SW-620 colon = test system: SW-620 colon
T-47D breast = test system: T-47D breast
TK-10 renal = test system: TK-10 renal
UACC-257 melanoma = test system: UACC-257 melanoma
UACC-62 melanoma = test system: UACC-62 melanoma
UO-31 renal = test system: UO-31 renal
786-0 renal = test system: 786-0 renal
HCC-2998 colon = test system: HCC-2998 colon
HCT-116 colon = test system: HCT-116 colon
LOX IMVI melanoma = test system: LOX IMVI melanoma
MALME-3M melanoma = test system: MALME-3M melanoma
NCI-H522 lung = test system: NCI-H522 lung
RXF 393 renal = test system: RXF 393 renal
U251 CNS = test system: U251 CNS

## O=C1C=CC[C@H]2O[C@@H](COC(=O)Cc3ccccc3)C[C@H]2O1
A498 renal
  TGI: > 100 µM
A549 NSCLC
  TGI: > 100 µM
ACHN renal
  TGI: > 100 µM
CAKI-1 renal
  TGI: > 100 µM
CCRF-CEM leukemia
  TGI: > 100 µM
COLO 205 colon
  TGI: > 100 µM
DU-145 prostate
  TGI: > 100 µM
EKVX NSCLC
  TGI: 70.1 µM
HCT-15 colon
  TGI: 45.7 µM
HL-60(TB) leukemia
  TGI: 65.2 µM
HOP-62 NSCLC
  TGI: > 100 µM
HOP-92 NSCLC
  TGI: > 100 µM
HS 578T breast
  TGI: 59.4 µM
HT29 colon
  TGI: 71.7 µM
IGROV1 ovarian
  TGI: 54.6 µM
K-562 leukemia
  TGI: > 100 µM
KM12 colon
  TGI: 42.4 µM
M14 melanoma
  TGI: > 100 µM
MCF7 breast
  TGI: > 100 µM
MDA-MB-231 breast
  TGI: > 100 µM
MDA-MB-435
  TGI: > 100 µM
MDA-N
  TGI: > 100 µM
MOLT-4 leukemia
  TGI: > 100 µM
NCI-H226 lung
  TGI: > 100 µM
NCI-H23 lung
  TGI: 66.6 µM
NCI-H460 lung
  TGI: > 100 µM
NCI/ADR-RES ovarian
  TGI: > 100 µM
OVCAR-3 ovarian
  TGI: > 100 µM
OVCAR-4 ovarian
  TGI: 85.9 µM
OVCAR-5 ovarian
  TGI: > 100 µM
OVCAR-8 ovarian
  TGI: 77.9 µM
PC-3 prostate
  TGI: > 100 µM
RPMI-8226 leukemia
  TGI: > 100 µM
SF-268 CNS
  TGI: 56.2 µM
SF-295 CNS
  TGI: > 100 µM
SF-539 CNS
  TGI: > 100 µM
SK-MEL-2 melanoma
  TGI: > 100 µM
SK-MEL-28 melanoma
  TGI: 74.4 µM
SK-MEL-5 melanoma
  TGI: > 100 µM
SK-OV-3 ovarian
  TGI: > 100 µM
SN12C renal
  TGI: > 100 µM
SNB-19 CNS
  TGI: > 100 µM
SNB-75 CNS
  TGI: 77.2 µM
SR leukemia
  TGI: > 100 µM
SW-620 colon
  TGI: > 100 µM
T-47D breast
  TGI: > 100 µM
TK-10 renal
  TGI: 65.5 µM
UACC-257 melanoma
  TGI: > 100 µM
UACC-62 melanoma
  TGI: > 100 µM
UO-31 renal
  TGI: > 100 µM

## Nc1nc(N)c2ncn(-c3ccc(Cl)cc3)c2n1
786-0 renal
  TGI: > 100 µM
A498 renal
  TGI: 83.5 µM
A549 NSCLC
  TGI: > 100 µM
ACHN renal
  TGI: > 100 µM
CAKI-1 renal
  TGI: > 100 µM
CCRF-CEM leukemia
  TGI: 66.1 µM
COLO 205 colon
  TGI: > 100 µM
DU-145 prostate
  TGI: > 100 µM
EKVX NSCLC
  TGI: > 100 µM
HCC-2998 colon
  TGI: > 100 µM
HCT-116 colon
  TGI: > 100 µM
HCT-15 colon
  TGI: > 100 µM
HL-60(TB) leukemia
  TGI: > 100 µM
HOP-62 NSCLC
  TGI: > 100 µM
HOP-92 NSCLC
  TGI: > 100 µM
HT29 colon
  TGI: > 100 µM
IGROV1 ovarian
  TGI: 96.3 µM
KM12 colon
  TGI: > 100 µM
LOX IMVI melanoma
  TGI: > 100 µM
M14 melanoma
  TGI: > 100 µM
MALME-3M melanoma
  TGI: > 100 µM
MCF7 breast
  TGI: > 100 µM
MDA-MB-231 breast
  TGI: > 100 µM
MDA-MB-435
  TGI: > 100 µM
MDA-N
  TGI: > 100 µM
NCI-H226 lung
  TGI: > 100 µM
NCI-H23 lung
  TGI: > 100 µM
NCI-H522 lung
  TGI: > 100 µM
NCI/ADR-RES ovarian
  TGI: > 100 µM
OVCAR-3 ovarian
  TGI: > 100 µM
OVCAR-4 ovarian
  TGI: > 100 µM
OVCAR-5 ovarian
  TGI: > 100 µM
OVCAR-8 ovarian
  TGI: > 100 µM
PC-3 prostate
  TGI: > 100 µM
RXF 393 renal
  TGI: 73.5 µM
SF-295 CNS
  TGI: > 100 µM
SF-539 CNS
  TGI: 80.5 µM
SK-MEL-2 melanoma
  TGI: > 100 µM
SK-MEL-28 melanoma
  TGI: > 100 µM
SK-MEL-5 melanoma
  TGI: > 100 µM
SK-OV-3 ovarian
  TGI: 53.3 µM
SN12C renal
  TGI: > 100 µM
SNB-75 CNS
  TGI: 59.1 µM
T-47D breast
  TGI: > 100 µM
TK-10 renal
  TGI: > 100 µM
U251 CNS
  TGI: > 100 µM
UACC-257 melanoma
  TGI: > 100 µM
UACC-62 melanoma
  TGI: > 100 µM
UO-31 renal
  TGI: > 100 µM

From PubChem BioAssay (NCI)
